Experimental data as given in ChEMBL document CHEMBL4507288 (2021).
pKi: −log10 of the molar value.

Columns and labels:
[1] = target: 5-hydroxytryptamine receptor 2A (Homo sapiens, UniProt P28223); assay: GPCRScan assay: inhibition of 5-HT2A; design: radioligand conc. used [nm] 1.2 – 2.4, parental cells HEKT
[2] = target: Alpha-2A adrenergic receptor (Homo sapiens, UniProt P08913); assay: GPCRScan assay: inhibition of Alpha2A; design: radioligand conc. used [nm] 1.0 – 3.0, parental cells stable MDCK
[3] = test system: Tyrosine-protein kinase ABL1 (Homo sapiens), P00519 [Q252H]; details: Compound concentration 1000.0 nM
[4] = target: 5'-AMP-activated protein kinase catalytic subunit alpha-1 (Homo sapiens) (UniProt Q13131); details: Compound concentration 1000.0 nM
Sequence of 5'-AMP-activated protein kinase catalytic subunit alpha-1 (Homo sapiens) (Q13131 whole entry, looked up): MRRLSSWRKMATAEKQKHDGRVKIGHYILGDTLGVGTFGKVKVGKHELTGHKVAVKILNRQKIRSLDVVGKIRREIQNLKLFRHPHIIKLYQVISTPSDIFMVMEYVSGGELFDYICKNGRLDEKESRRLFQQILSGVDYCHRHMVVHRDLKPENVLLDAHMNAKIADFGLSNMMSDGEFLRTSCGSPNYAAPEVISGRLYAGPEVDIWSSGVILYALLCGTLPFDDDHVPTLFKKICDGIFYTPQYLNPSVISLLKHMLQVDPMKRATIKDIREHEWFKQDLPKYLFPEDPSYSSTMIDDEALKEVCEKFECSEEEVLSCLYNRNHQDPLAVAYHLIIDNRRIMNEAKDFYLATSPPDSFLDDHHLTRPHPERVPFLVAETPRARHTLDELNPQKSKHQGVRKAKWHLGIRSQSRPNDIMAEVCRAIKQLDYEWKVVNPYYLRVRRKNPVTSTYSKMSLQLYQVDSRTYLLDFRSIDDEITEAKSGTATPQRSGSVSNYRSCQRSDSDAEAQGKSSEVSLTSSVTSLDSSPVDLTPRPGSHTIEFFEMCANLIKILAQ

[5] = target: NUAK family SNF1-like kinase 1 (Homo sapiens) (UniProt O60285); details: Compound concentration 1000.0 nM
[6] = target: Mitogen-activated protein kinase kinase kinase 6 (Homo sapiens) (UniProt O95382); details: Compound concentration 1000.0 nM
[7] = target: Bone morphogenetic protein receptor type-1B (Homo sapiens) (UniProt O00238); details: Compound concentration 1000.0 nM
[8] = target: Bone morphogenetic protein receptor type-2 (Homo sapiens) (UniProt Q13873); details: Compound concentration 1000.0 nM
[9] = target: Serine/threonine-protein kinase B-raf (Homo sapiens) (UniProt P15056); details: Compound concentration 1000.0 nM
Sequence of Serine/threonine-protein kinase B-raf (Homo sapiens) (P15056 whole entry): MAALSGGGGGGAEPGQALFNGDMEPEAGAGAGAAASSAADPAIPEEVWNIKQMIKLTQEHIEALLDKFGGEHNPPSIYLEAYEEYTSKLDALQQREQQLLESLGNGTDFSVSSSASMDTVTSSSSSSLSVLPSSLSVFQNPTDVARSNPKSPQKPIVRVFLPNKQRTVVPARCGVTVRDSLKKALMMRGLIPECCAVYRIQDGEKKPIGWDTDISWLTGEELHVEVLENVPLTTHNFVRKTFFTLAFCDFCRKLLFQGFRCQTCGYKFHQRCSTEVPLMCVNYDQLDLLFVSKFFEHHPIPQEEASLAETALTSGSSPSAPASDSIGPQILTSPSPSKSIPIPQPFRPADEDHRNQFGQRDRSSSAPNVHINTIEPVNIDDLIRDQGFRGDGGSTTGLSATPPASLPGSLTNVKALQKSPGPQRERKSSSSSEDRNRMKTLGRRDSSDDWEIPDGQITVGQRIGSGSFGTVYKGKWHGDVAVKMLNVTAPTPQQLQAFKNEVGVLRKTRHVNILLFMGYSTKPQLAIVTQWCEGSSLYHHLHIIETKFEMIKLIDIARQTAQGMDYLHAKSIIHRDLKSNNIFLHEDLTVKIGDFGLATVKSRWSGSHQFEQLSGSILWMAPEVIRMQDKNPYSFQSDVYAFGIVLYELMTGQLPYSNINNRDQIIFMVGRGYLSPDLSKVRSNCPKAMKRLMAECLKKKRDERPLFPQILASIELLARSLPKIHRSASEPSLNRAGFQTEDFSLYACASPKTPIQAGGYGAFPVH

[10] = target: Tyrosine-protein kinase BTK (Homo sapiens) (UniProt Q06187); details: Compound concentration 1000.0 nM
Sequence of Tyrosine-protein kinase BTK (Homo sapiens) (Q06187 whole entry): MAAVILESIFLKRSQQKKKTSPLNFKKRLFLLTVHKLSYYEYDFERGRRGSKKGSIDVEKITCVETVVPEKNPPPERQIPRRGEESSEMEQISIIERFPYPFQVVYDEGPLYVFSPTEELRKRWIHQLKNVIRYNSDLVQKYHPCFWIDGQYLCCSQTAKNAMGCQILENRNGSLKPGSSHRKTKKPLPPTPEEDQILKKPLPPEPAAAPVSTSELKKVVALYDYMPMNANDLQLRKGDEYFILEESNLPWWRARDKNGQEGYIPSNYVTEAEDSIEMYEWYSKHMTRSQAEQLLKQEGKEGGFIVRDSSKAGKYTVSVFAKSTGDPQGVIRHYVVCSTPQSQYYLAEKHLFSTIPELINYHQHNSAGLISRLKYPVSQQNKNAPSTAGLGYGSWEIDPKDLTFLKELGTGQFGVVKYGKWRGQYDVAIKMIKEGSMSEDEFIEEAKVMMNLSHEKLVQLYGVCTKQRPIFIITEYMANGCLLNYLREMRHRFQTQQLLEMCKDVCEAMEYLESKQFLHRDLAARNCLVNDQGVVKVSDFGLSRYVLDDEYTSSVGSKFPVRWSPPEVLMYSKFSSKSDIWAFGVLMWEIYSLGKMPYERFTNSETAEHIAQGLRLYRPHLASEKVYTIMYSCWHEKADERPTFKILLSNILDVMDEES

[11] = target: Calcium/calmodulin-dependent protein kinase type 1B (Homo sapiens) (UniProt Q6P2M8); details: Compound concentration 1000.0 nM
[12] = target: Cyclin-dependent kinase 11B (Homo sapiens) (UniProt P21127); details: Compound concentration 1000.0 nM
[13] = target: Cyclin-dependent kinase 11A (Homo sapiens) (UniProt Q9UQ88); details: Compound concentration 1000.0 nM
[14] = target: Cyclin-dependent kinase 4 (Homo sapiens) (UniProt P11802); details: Compound concentration 1000.0 nM
Sequence of Cyclin-dependent kinase 4 (Homo sapiens) (P11802 whole entry, canonical isoform): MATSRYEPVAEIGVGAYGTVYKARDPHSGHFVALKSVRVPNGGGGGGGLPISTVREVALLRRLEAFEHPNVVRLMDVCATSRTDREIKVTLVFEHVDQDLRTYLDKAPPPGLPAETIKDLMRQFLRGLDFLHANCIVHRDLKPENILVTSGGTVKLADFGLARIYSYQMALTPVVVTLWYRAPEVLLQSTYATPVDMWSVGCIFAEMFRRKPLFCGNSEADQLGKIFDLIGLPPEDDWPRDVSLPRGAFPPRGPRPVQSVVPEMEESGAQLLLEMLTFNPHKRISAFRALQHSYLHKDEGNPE

[15] = target: Casein kinase I isoform delta (Homo sapiens) (UniProt P48730); details: Compound concentration 1000.0 nM
[16] = target: Casein kinase II subunit alpha (Homo sapiens) (UniProt P68400); details: Compound concentration 1000.0 nM
[17] = target: Serine/threonine-protein kinase MRCK gamma (Homo sapiens) (UniProt Q6DT37); details: Compound concentration 1000.0 nM
[18] = target: Ephrin type-B receptor 4 (Homo sapiens) (UniProt P54760); details: Compound concentration 1000.0 nM
Sequence of Ephrin type-B receptor 4 (Homo sapiens) (P54760 whole entry): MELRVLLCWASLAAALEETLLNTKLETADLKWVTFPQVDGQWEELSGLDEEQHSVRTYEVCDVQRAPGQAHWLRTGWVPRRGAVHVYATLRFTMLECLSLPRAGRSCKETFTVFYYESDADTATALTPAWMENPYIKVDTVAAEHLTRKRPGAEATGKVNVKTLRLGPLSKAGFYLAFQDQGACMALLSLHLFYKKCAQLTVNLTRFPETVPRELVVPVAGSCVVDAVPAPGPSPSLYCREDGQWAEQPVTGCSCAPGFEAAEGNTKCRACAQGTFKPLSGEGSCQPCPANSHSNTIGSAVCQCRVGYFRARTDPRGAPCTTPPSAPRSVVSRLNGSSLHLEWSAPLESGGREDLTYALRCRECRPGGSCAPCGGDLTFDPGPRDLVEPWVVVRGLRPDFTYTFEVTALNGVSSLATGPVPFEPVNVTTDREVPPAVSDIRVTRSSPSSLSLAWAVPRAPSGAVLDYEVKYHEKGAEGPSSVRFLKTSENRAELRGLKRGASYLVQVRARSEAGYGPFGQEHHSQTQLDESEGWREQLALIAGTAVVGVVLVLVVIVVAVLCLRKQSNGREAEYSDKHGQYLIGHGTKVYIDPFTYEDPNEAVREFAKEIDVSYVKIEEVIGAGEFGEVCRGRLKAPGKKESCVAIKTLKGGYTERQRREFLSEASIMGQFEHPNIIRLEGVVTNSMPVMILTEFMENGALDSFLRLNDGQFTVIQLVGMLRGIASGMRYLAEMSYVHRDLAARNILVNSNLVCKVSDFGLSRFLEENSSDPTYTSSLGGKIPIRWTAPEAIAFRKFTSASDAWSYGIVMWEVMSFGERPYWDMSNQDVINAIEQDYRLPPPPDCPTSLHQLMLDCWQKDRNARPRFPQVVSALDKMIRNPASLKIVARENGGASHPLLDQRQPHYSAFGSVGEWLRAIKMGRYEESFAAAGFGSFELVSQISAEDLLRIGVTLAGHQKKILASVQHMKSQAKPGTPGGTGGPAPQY

[19] = test system: Fibroblast growth factor receptor 3 (Homo sapiens), P22607 [G697C]; details: Compound concentration 1000.0 nM
[20] = test system: eIF-2-alpha kinase GCN2 (Homo sapiens), Q9P2K8 [S808G]; details: Compound concentration 1000.0 nM
[21] = target: Glycogen synthase kinase-3 beta (Homo sapiens) (UniProt P49841); details: Compound concentration 1000.0 nM
[22] = target: Mitogen-activated protein kinase kinase kinase kinase 1 (Homo sapiens) (UniProt Q92918); details: Compound concentration 1000.0 nM
[23] = target: Interleukin-1 receptor-associated kinase 1 (Homo sapiens) (UniProt P51617); details: Compound concentration 1000.0 nM
[24] = target: Mitogen-activated protein kinase 10 (Homo sapiens) (UniProt P53779); details: Compound concentration 1000.0 nM
[25] = test system: Mast/stem cell growth factor receptor Kit (Homo sapiens), P10721 [A829P]; details: Compound concentration 1000.0 nM
[26] = target: Serine/threonine-protein kinase MAK (Homo sapiens) (UniProt P20794); details: Compound concentration 1000.0 nM
[27] = target: Mitogen-activated protein kinase kinase kinase kinase 2 (Homo sapiens) (UniProt Q12851); details: Compound concentration 1000.0 nM
[28] = target: Mitogen-activated protein kinase kinase kinase kinase 3 (Homo sapiens) (UniProt Q8IVH8); details: Compound concentration 1000.0 nM
[29] = target: Mitogen-activated protein kinase kinase kinase kinase 4 (Homo sapiens) (UniProt O95819); details: Compound concentration 1000.0 nM
[30] = target: Dual specificity mitogen-activated protein kinase kinase 5 (Homo sapiens) (UniProt Q13163); details: Compound concentration 1000.0 nM
[31] = target: Serine/threonine-protein kinase Nek4 (Homo sapiens) (UniProt P51957); details: Compound concentration 1000.0 nM
[32] = target: Mitogen-activated protein kinase kinase kinase 14 (Homo sapiens) (UniProt Q99558); details: Compound concentration 1000.0 nM
[33] = target: Mitogen-activated protein kinase 14 (Homo sapiens) (UniProt Q16539); details: Compound concentration 1000.0 nM
[34] = target: Phosphorylase b kinase regulatory subunit alpha, liver isoform (Homo sapiens) (UniProt P46019); details: Compound concentration 1000.0 nM
[35] = target: Phosphatidylinositol 4-kinase beta (Homo sapiens) (UniProt Q9UBF8); details: Compound concentration 1000.0 nM
[36] = target: cAMP-dependent protein kinase catalytic subunit beta (Homo sapiens) (UniProt P22694); details: Compound concentration 1000.0 nM
[37] = target: Membrane-associated tyrosine- and threonine-specific cdc2-inhibitory kinase (Homo sapiens) (UniProt Q99640); details: Compound concentration 1000.0 nM
[38] = target: Serine/threonine-protein kinase PLK1 (Homo sapiens) (UniProt P53350); details: Compound concentration 1000.0 nM
[39] = target: Receptor-interacting serine/threonine-protein kinase 1 (Homo sapiens) (UniProt Q13546); details: Compound concentration 1000.0 nM
[40] = target: Rho-associated protein kinase 2 (Homo sapiens) (UniProt O75116); details: Compound concentration 1000.0 nM
[41] = target: Ribosomal protein S6 kinase alpha-6 (Homo sapiens) (UniProt Q9UK32); details: Compound concentration 1000.0 nM
[42] = target: Serine/threonine-protein kinase Sgk1 (Homo sapiens) (UniProt O00141); details: Compound concentration 1000.0 nM
Sequence of Serine/threonine-protein kinase Sgk1 (Homo sapiens) (O00141 whole entry): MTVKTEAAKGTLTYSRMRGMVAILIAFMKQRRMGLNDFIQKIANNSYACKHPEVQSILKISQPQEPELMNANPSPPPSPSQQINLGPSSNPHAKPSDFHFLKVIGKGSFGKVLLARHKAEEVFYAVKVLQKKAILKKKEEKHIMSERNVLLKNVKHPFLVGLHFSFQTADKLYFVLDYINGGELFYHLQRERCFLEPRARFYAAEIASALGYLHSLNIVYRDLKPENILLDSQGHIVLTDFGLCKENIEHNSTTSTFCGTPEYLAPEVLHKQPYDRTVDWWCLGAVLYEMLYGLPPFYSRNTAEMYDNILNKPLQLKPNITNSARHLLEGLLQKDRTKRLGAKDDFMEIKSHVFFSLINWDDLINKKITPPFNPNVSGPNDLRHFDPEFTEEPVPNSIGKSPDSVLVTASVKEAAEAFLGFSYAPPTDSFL

[43] = target: Serine/threonine-protein kinase SIK2 (Homo sapiens) (UniProt Q9H0K1); details: Compound concentration 1000.0 nM
[44] = target: TRAF2 and NCK-interacting protein kinase (Homo sapiens) (UniProt Q9UKE5); details: Compound concentration 1000.0 nM
Sequence of TRAF2 and NCK-interacting protein kinase (Homo sapiens) (Q9UKE5 whole entry, looked up): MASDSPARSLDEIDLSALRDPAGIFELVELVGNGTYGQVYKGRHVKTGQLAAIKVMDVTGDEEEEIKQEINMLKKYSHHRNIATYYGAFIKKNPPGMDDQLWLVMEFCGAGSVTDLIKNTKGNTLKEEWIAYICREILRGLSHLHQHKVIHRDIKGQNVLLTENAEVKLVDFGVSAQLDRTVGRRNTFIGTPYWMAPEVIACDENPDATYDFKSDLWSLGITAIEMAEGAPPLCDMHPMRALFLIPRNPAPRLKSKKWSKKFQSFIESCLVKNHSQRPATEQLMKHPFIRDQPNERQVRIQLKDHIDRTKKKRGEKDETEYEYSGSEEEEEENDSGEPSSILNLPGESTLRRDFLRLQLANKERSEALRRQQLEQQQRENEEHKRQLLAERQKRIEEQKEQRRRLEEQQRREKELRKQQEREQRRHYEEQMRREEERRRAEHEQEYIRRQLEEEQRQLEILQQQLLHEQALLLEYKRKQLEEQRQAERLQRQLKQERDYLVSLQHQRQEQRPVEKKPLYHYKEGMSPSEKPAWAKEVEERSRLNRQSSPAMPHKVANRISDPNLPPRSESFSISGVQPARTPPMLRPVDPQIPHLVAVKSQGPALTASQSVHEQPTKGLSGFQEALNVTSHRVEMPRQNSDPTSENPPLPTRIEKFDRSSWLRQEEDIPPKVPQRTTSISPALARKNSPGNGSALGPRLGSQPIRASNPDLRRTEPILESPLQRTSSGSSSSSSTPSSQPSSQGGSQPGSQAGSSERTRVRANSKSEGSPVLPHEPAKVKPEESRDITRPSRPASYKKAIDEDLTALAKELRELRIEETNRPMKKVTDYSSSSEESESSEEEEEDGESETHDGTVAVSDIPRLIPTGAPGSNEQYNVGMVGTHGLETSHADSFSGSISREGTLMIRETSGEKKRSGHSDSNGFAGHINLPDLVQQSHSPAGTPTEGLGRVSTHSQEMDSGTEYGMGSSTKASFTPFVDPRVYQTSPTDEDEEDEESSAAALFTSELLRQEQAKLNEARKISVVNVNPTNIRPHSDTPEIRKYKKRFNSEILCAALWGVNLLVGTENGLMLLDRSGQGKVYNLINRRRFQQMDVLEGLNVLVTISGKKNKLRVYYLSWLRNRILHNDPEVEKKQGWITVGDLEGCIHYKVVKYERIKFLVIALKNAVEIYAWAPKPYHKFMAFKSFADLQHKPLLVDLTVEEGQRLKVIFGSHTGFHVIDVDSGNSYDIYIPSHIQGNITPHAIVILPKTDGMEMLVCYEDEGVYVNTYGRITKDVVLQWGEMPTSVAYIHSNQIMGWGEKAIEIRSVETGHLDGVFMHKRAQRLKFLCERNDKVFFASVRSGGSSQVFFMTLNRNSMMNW

[45] = target: Serine/threonine-protein kinase 32A (Homo sapiens) (UniProt Q8WU08); details: Compound concentration 1000.0 nM

CC(C)(C)OC(=O)N1CCCC1CNC1CCC(c2cc(F)ccc2F)(S(=O)(=O)c2ccc(Cl)cc2)CC1 (stereo not given) [GSI-NC]
pKi [1]: 6.32
pKi [2]: 6.63

O=S(=O)(NC1CCC(c2cc(F)ccc2F)(S(=O)(=O)c2ccc(Cl)cc2)CC1)C(F)(F)F (stereo not given) [MRK-560]
residual activity [3]: 95%
residual activity [4]: 100%
residual activity [5]: 83%
residual activity [6]: 82%
residual activity [7]: 100%
residual activity [8]: 100%
residual activity [9]: 93%
residual activity [10]: 100%
residual activity [11]: 100%
residual activity [12]: 82%
residual activity [13]: 96%
residual activity [14]: 100%
residual activity [15]: 87%
residual activity [16]: 85%
residual activity [17]: 100%
residual activity [18]: 100%
residual activity [19]: 100%
residual activity [20]: 100%
residual activity [21]: 100%
residual activity [22]: 96%
residual activity [23]: 93%
residual activity [24]: 67%
residual activity [25]: 100%
residual activity [26]: 100%
residual activity [27]: 100%
residual activity [28]: 100%
residual activity [29]: 71%
residual activity [30]: 52%
residual activity [31]: 100%
residual activity [32]: 82%
residual activity [33]: 100%
residual activity [34]: 91%
residual activity [35]: 82%
residual activity [36]: 98%
residual activity [37]: 100%
residual activity [38]: 100%
residual activity [39]: 100%
residual activity [40]: 100%
residual activity [41]: 90%
residual activity [42]: 83%
residual activity [43]: 100%
residual activity [44]: 82%
residual activity [45]: 97%
